These results are taken from patent US12202818B2, “Compounds and methods for CD73 modulation and indications therefor” (Opna Bio SA, priority 2020, dated 2025).

The target of one assay is T1, human CD73 (Homo sapiens, UniProt P21589).
T1 construct: expressed in transfected cells
T1 sequence (P21589 27-549): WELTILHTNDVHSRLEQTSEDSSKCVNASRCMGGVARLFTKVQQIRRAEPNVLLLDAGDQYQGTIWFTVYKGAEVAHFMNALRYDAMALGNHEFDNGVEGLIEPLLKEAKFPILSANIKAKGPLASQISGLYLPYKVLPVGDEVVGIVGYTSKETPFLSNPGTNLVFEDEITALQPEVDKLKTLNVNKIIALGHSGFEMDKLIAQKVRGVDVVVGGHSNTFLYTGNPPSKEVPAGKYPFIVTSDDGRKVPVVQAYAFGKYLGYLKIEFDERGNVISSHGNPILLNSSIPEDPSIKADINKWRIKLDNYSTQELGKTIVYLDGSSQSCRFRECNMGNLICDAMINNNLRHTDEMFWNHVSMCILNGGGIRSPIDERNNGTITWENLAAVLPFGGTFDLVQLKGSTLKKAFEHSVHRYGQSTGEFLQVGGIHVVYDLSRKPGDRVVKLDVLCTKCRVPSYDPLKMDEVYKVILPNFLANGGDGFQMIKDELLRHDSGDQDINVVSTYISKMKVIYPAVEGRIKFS
Put plainly: Inhibitor activity against CD73 in cell based assay (CD73 expressing CHO-K1 cells). The following applies: CHO-K1 cells expressing human CD73, 150 μM AMP, 4 hours of incubation; read-out: CHO-K1 CELL_VARIANT: CD73 IC50. In outline:
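Stable human CD73 CHO-K1 cells, 1×10^4/well, exposed to an 8-point 1:3 compound series (top 10 μM, 0.2% DMSO) plus 150 μM AMP for 4 h. Remaining AMP in the supernatant was read by CellTiter-Glo 2.0 luminescence with 1 μM ATP after 30 min at room temperature. IC50 came from nonlinear regression of % inhibition against cell and media-only controls.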

For assay [1], the target named is T2, Human CD73 (amino acid residues 27-549) (Homo sapiens, UniProt P21589).
T2 construct: Human CD73 (amino acid residues 27-549); His tag (N); made in house; host or cells: E. coli
T2 sequence (P21589 27-549): T1 sequence (P21589 27-549)
Put plainly: CD73 enzymatic assay (luciferase-based indirect assay, CellTiter-Glo). It is filed as biochemical. The note with it: 0.4 nM CD73, 150 μM AMP, 1 hour at room temperature. An outline of the steps:
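N-His human CD73 (27-549) expressed in E. coli, 0.4 nM, incubated with 150 μM AMP and compound in 50 mM HEPES pH 7.4, 0.01% Tween-20, 1 h at RT. Remaining AMP read via CellTiter-Glo luminescence with 1 μM ATP after 30 min; IC50 from nonlinear regression of % inhibition.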
A general note: In ATP-based viability assays light output follows the ATP content of the culture.

Broadly, the IC50 is the concentration that gives 50% inhibition. As to `Cc1nn(C)c(C)c1-c1cc(O[C@@H]2CCN(c3cn[nH]c(=O)c3Cl)C2)ccn1` [P-0137, (R)-4-chloro-5-(3-((2-(1,3,5-trimethyl-1H-pyrazol-4-yl)pyridin-4-yl)oxy)pyrrolidin-1-yl)pyridazin-3(2H)-one], the IC50 (on human CD73; in assay [1]) was 0.001 to 10 µM in each case.

`Cc1nn(CC(O)CCCl)c(C)c1-c1ccnc(O[C@@H]2CCN(c3cnn(CCO)c(=O)c3Cl)C2)c1` (stereo partly drawn) [P-0064, 4-chloro-5-((3R)-3-((4-(1-(4-chloro-2-hydroxybutyl)-3,5-dimethyl-1H-pyrazol-4-yl)pyridin-2-yl)oxy)pyrrolidin-1-yl)-2-(2-hydroxyethyl)pyridazin-3(2H)-one]: the 50% inhibitory concentration (IC50) (on human CD73; in assay [1]) was 0.001 to 10 µM each time.

In the case of `Cc1c(-c2ccnc(O[C@@H]3CCN(c4cn[nH]c(=O)c4Cl)C3)c2)cnn1C` [P-0209, (R)-4-chloro-5-(3-((4-(1,5-dimethyl-1H-pyrazol-4-yl)pyridin-2-yl)oxy)pyrrolidin-1-yl)pyridazin-3(2H)-one], the concentration for half-maximal inhibition (IC50) (on human CD73; in assay [1]) was 0.001 to 10 µM each time.

Turning to `O=c1[nH]ncc(N2CC[C@@H](Oc3cc(C4CCN(CC(F)(F)F)CC4)ccn3)C2)c1Cl` [P-0048, (R)-4-chloro-5-(3-((4-(1-(2,2,2-trifluoroethyl)piperidin-4-yl)pyridin-2-yl)oxy)pyrrolidin-1-yl)pyridazin-3(2H)-one], the half-inhibitory concentration (IC50) (on human CD73; in assay [1]) was 0.001 to 10 µM each time.

In the case of `CCCNS(=O)(=O)c1ccc(-c2ccnc(O[C@@H]3CCN(c4cn[nH]c(=O)c4Cl)C3)c2)c(Cl)c1` [P-0233, (R)-3-chloro-4-(2-((1-(5-chloro-6-oxo-1,6-dihydropyridazin-4-yl)pyrrolidin-3-yl)oxy)pyridin-4-yl)-N-propylbenzenesulfonamide], the concentration for half-maximal inhibition (IC50) (at human CD73; in assay [1]) was 0.001 to 10 µM in each case.

On to `CCNS(=O)(=O)c1ccc(-c2ccnc(O[C@@H]3CCN(c4cn[nH]c(=O)c4Cl)C3)c2)cc1` [P-0243, (R)-4-(2-((1-(5-chloro-6-oxo-1,6-dihydropyridazin-4-yl)pyrrolidin-3-yl)oxy)pyridin-4-yl)-N-ethylbenzenesulfonamide], for which the IC50 (on human CD73; in assay [1]) was 0.001 to 10 µM throughout.

Take `Cc1nn(C)c(C)c1-c1cc(O[C@@H]2CCN(c3cnn(CCO)c(=O)c3Cl)C2)ccn1` [P-0135, (R)-4-chloro-2-(2-hydroxyethyl)-5-(3-((2-(1,3,5-trimethyl-1H-pyrazol-4-yl)pyridin-4-yl)oxy)pyrrolidin-1-yl)pyridazin-3(2H)-one]: the IC50 (at human CD73; in assay [1]) was 0.001 to 10 µM each time.

With `CCCCNS(=O)(=O)c1ccc(-c2ccnc(O[C@@H]3CCN(c4cn[nH]c(=O)c4Cl)C3)c2)cc1` [P-0242, (R)-N-butyl-4-(2-((1-(5-chloro-6-oxo-1,6-dihydropyridazin-4-yl)pyrrolidin-3-yl)oxy)pyridin-4-yl)benzenesulfonamide], the IC50 (at human CD73; in assay [1]) was 0.001 to 10 µM each time.

For `Cc1nn(CC2(C)COC2)c(C)c1-c1ccnc(O[C@H]2CN(c3cn[nH]c(=O)c3Cl)C[C@@H]2F)c1` [P-0096, 4-chloro-5-((3S,4S)-3-((4-(3,5-dimethyl-1-((3-methyloxetan-3-yl)methyl)-1H-pyrazol-4-yl)pyridin-2-yl)oxy)-4-fluoropyrrolidin-1-yl)pyridazin-3(2H)-one], the IC50 (at human CD73; in assay [1]) was 0.001 to 10 µM throughout.

For the compound `Cc1noc(C)c1-c1cc(O[C@@H]2CCN(c3cnn(CCO)c(=O)c3Cl)C2)ncn1` [P-0178, (R)-4-chloro-5-(3-((6-(3,5-dimethylisoxazol-4-yl)pyrimidin-4-yl)oxy)pyrrolidin-1-yl)-2-(2-hydroxyethyl)pyridazin-3(2H)-one], the IC50 (at human CD73; in assay [1]) was 0.001 to 10 µM in each case.

On to `NC1CC=C(c2ccnc(O[C@@H]3CCN(c4cn[nH]c(=O)c4Cl)C3)c2)CC1` (stereo partly drawn) [P-0067, 5-((3R)-3-((4-(4-aminocyclohex-1-en-1-yl)pyridin-2-yl)oxy)pyrrolidin-1-yl)-4-chloropyridazin-3(2H)-one], for which the 50% inhibitory concentration (IC50) (at human CD73; in assay [1]) was 0.001 to 10 µM in each case.

For `Cc1nn(C)c(C)c1-c1ccnc(O[C@@H]2CCN(c3cn[nH]c(=O)c3)C2)c1` [P-0113, (R)-5-(3-((4-(1,3,5-trimethyl-1H-pyrazol-4-yl)pyridin-2-yl)oxy)pyrrolidin-1-yl)pyridazin-3(2H)-one], the 50% inhibitory concentration (IC50) (at human CD73; in assay [1]) was 0.001 to 10 µM in each case.

Take `CCCS(=O)(=O)N1CCN(c2ccnc(O[C@@H]3CCN(c4cn[nH]c(=O)c4Cl)C3)c2)CC1` [P-0239, (R)-4-chloro-5-(3-((4-(4-(propylsulfonyl)piperazin-1-yl)pyridin-2-yl)oxy)pyrrolidin-1-yl)pyridazin-3(2H)-one]: the 50% inhibitory concentration (IC50) (at human CD73; in assay [1]) was 0.001 to 10 µM each time.

Turning to `Cc1nn(C)c(C)c1-c1cnnc(O[C@@H]2CCN(c3cn[nH]c(=O)c3Cl)C2)c1` [P-0156, (R)-4-chloro-5-(3-((5-(1,3,5-trimethyl-1H-pyrazol-4-yl)pyridazin-3-yl)oxy)pyrrolidin-1-yl)pyridazin-3(2H)-one], the half-inhibitory concentration (IC50) (on human CD73; in assay [1]) was 0.001 to 10 µM in each case.

For `Cc1nn(CC(=O)NC2CC2)c(C)c1-c1ccnc(O[C@@H]2CCN(c3cn[nH]c(=O)c3Cl)C2)c1` [P-0040, (R)-2-(4-(2-((1-(5-chloro-6-oxo-1,6-dihydropyridazin-4-yl)pyrrolidin-3-yl)oxy)pyridin-4-yl)-3,5-dimethyl-1H-pyrazol-1-yl)-N-cyclopropylacetamide], the 50% inhibitory concentration (IC50) (on human CD73; in assay [1]) was 0.001 to 10 µM throughout.

Turning to `O=c1[nH]ncc(N2CC[C@@H](Oc3cc(-c4ccc(S(=O)(=O)N5CCCC5)cc4)ccn3)C2)c1Cl` [P-0246, (R)-4-chloro-5-(3-((4-(4-(pyrrolidin-1-ylsulfonyl)phenyl)pyridin-2-yl)oxy)pyrrolidin-1-yl)pyridazin-3(2H)-one], the IC50 (at human CD73; in assay [1]) was 0.001 to 10 µM each time.

As for `Cc1nn(C2(CC(N)=O)CCC2)c(C)c1-c1ccnc(O[C@@H]2CCN(c3cn[nH]c(=O)c3Cl)C2)c1` [P-0035, (R)-2-(1-(4-(2-((1-(5-chloro-6-oxo-1,6-dihydropyridazin-4-yl)pyrrolidin-3-yl)oxy)pyridin-4-yl)-3,5-dimethyl-1H-pyrazol-1-yl)cyclobutyl)acetamide], the IC50 (on human CD73; in assay [1]) was 0.001 to 10 µM throughout.

As to `Cc1nn(C)c(C)c1-c1ccnc(O[C@@H]2CCN(c3cnn(CCCO)c(=O)c3C#N)C2)c1` [P-0097, (R)-2-(3-hydroxypropyl)-3-oxo-5-(3-((4-(1,3,5-trimethyl-1H-pyrazol-4-yl)pyridin-2-yl)oxy)pyrrolidin-1-yl)-2,3-dihydropyridazine-4-carbonitrile], the IC50 (at human CD73; in assay [1]) was 0.001 to 10 µM in each case.

In the case of `Cc1c(-c2cccc(O[C@@H]3CCN(c4cn[nH]c(=O)c4Cl)C3)c2)cnn1C` [P-0196, (R)-4-chloro-5-(3-(3-(1,5-dimethyl-1H-pyrazol-4-yl)phenoxy)pyrrolidin-1-yl)pyridazin-3(2H)-one], the IC50 (at human CD73; in assay [1]) was 0.001 to 10 µM each time.

Turning to `O=C(O)C1CCC(c2ccnc(O[C@@H]3CCN(c4cn[nH]c(=O)c4Cl)C3)c2)CC1` (stereo partly drawn) [P-0047, (R)-4-(2-((1-(5-chloro-6-oxo-1,6-dihydropyridazin-4-yl)pyrrolidin-3-yl)oxy)pyridin-4-yl)cyclohexane-1-carboxylic acid], the IC50 (at human CD73; in assay [1]) was 0.001 to 10 µM in each case.
